Measurements as given in patent US20210308089A1, “METHODS OF TREATING AND/OR PREVENTING VIRAL INFECTIONS AND/OR DISEASES CAUSED BY VIRUSES IN A SUBJECT IN NEED THEREOF” (priority 2020, published 2021).

System: patients of the REDUCE-IT and earlier EPA placebo-controlled trials
Assay: Example 3: adverse events by risk ratio, icosapent ethyl vs placebo (candidate categories; infectious disease terms of interest)
Conditions: R-I
[1] = Age-Related Macular Degeneration

SMILES: CC/C=C\C/C=C\C/C=C\C/C=C\C/C=C\CCCC(=O)OCC [icosapent ethyl, eicosapentaenoic acid ethyl ester]
- Risk Ratio (95% CI): Cognitive Decline: Cognitive and attention disorders and disturbances (AE table): 1.000 (0.141 to 7.097) −1
- Risk Ratio (95% CI): Cognitive Decline: Cognitive disturbances (AE table): [No cases in study]
- Risk Ratio (95% CI): Cough (AE table): 1.000 (0.841 to 1.189) −1
- Risk Ratio (95% CI): Cystic Fibrosis (AE table): [No cases in study]
- Risk Ratio (95% CI): Decreased Appetite (AE table): 2.584 (1.329 to 5.024) −4
- Risk Ratio (95% CI): Deep Venous Thromboembolism (AE table): 0.625 (0.205 to 1.909) 2
- Risk Ratio (95% CI): Depression: Depressed mood disorders and disturbances (AE table): 1.106 (0.861 to 1.422) −1
- Risk Ratio (95% CI): Depression: Depressive disorders (AE table): 1.123 (0.867 to 1.454) −1
- Risk Ratio (95% CI): Depression: Depressive disorders - Agitated depression (AE table): [2 drugs vs 0 PBO]
- Risk Ratio (95% CI): Depression: Depressive disorders - Depression (AE table): 1.097 (0.843 to 1.428) −1
- Risk Ratio (95% CI): Depression: Depressive disorders - Major depression (AE table): 3.001 (0.312 to 28.836) −4
- Risk Ratio (95% CI): Depression: Depressive disorders - Persistent depressive disorder (AE table): 2.000 (0.181 to 22.053) −3
- Risk Ratio (95% CI): Depression: Mood alterations - Depressed mood (AE table): 1.000 (0.290 to 3.452) −1
- Risk Ratio (95% CI): Depression: Mood alterations - Depressive symptom (AE table): 0.500 (0.045 to 5.513) 3
- Risk Ratio (95% CI): Depression: Mood alterations with depressive symptoms (AE table): 0.857 (0.288 to 2.549) 1
- Risk Ratio (95% CI): Dermatitis psoriasiform (AE table): [1 drug vs 0 PBO]
- Risk Ratio (95% CI): Dermatitis, allergic (AE table): 0.250 (0.071 to 0.885) 4
- Risk Ratio (95% CI): Diabetic Nephropathy (AE table): 0.909 (0.387 to 2.139) 1
- Risk Ratio (95% CI): ESRD (AE table): 0.667 (0.111 to 3.989) 2
- Risk Ratio (95% CI): Ear infection (AE table): 0.821 (0.515 to 1.307) 1
- Risk Ratio (95% CI): Embolism and Thrombosis (AE table): 1.064 (0.716 to 1.581) −1
- Risk Ratio (95% CI): Emphysema (AE table): 0.600 (0.294 to 1.266) 2
- Risk Ratio (95% CI): Epilepsy (AE table): 1.000 (0.063 to 15.986) −1
- Risk Ratio (95% CI): Erectile dysfunction (AE table): 0.784 (0.535 to 1.151) 2
- Risk Ratio (95% CI): Furuncle (AE table): 0.500 (0.171 to 1.462) 3
- Risk Ratio (95% CI): Gastroenteritis, viral (AE table): 0.789 (0.525 to 1.185) 2
- Risk Ratio (95% CI): Gastroesophageal reflux (AE table): 0.333 (0.090 to 1.231) 4
- Risk Ratio (95% CI): Gingivitis (AE table): 0.500 (0.171 to 1.462) 3
- Risk Ratio (95% CI): Glomerulonephritis and Nephrotic Syndrome (AE table): [0 drug vs 4 PBO]
- Risk Ratio (95% CI): Guttate psoriasis (AE table): [1 drug vs 0 PBO)
- Risk Ratio (95% CI): Helicobacter infection (AE table): 0.556 (0.186 to 1.657) 3
- Risk Ratio (95% CI): Hepatitis C (AE table): [1 drug vs 0 PBO]
- Risk Ratio (95% CI): Herpes Zoster (AE table): 0.960 (0.695 to 1.325) 1
- Risk Ratio (95% CI): Herpes simplex (AE table): 0.625 (0.205 to 1.909) 2
- Risk Ratio (95% CI): Hyperglycemia (AE table): 0.764 (0.562 to 1.037) 2
- Risk Ratio (95% CI): Hyperkalemia (AE table): 0.582 (0.377 to 0.898) 3
- Risk Ratio (95% CI): Hypertension (AE table): 0.930 (0.804 to 1.077) 1
- Risk Ratio (95% CI): Hypertensive Crisis (AE Table): 0.698 (0.439 to 1.110) 2
- Risk Ratio (95% CI): Hypokalemia (AE table): 1.064 (0.784 to 1.445) −1
- Risk Ratio (95% CI): Hypomagnesemia (AE table): 0.675 (0.422 to 1.078) 2
- Risk Ratio (95% CI): IgA Nephropathy (AE table): [No cases in study]
- Risk Ratio (95% CI): Infected bite (AE table): 0.714 (0.227 to 2.249) 2
- Risk Ratio (95% CI): Influenza (AE table): 0.971 (0.824 to 1.144) 1
- Risk Ratio (95% CI): Influenza like illness (AE table): 0.852 (0.489 to 1.483) 1
- Risk Ratio (95% CI): Jaundice cholestatic (AE table): [4 drug vs 0 PBO]
- Risk Ratio (95% CI): Large intestine polyps (AE table): 0.385 (0.137 to 1.078) 4
- Risk Ratio (95% CI): Limb Fractures and Dislocations (AE table): 0.883 (0.541 to 1.439) 1
- Risk Ratio (95% CI): Lupus (AE table): [0 drugs vs 1 PBO]
- Risk Ratio (95% CI): Male Infertility (AE table): [No cases in study]
- Risk Ratio (95% CI): Microalbuminuria (AE table): 0.214 (0.062 to 0.745) 4
- Risk Ratio (95% CI): Migraine (AE table): 2.751 (0.877 to 8.631) −4
- Risk Ratio (95% CI): Mucosal inflammation (AE table): 0.600 (0.144 to 2.510) 2
- Risk Ratio (95% CI): Multiple Sclerosis (AE table): [0 drugs vs 1 PBO]
- Risk Ratio (95% CI): Muscle spasms (AE table): 0.579 (0.421 to 0.795) 3
- Risk Ratio (95% CI): NASH (AE table): 0.167 (0.020 to 1.384) 5
- Risk Ratio (95% CI): NASH for b/l NFS >0.675 (AE table): 0.252 (0.028 to 2.251) 4
- Risk Ratio (95% CI): NASH+Hepatic Steatosis for NFS >0.675 (AE table): 0.740 (0.342 to 1.601) 2
- Risk Ratio (95% CI): Nasopharyngitis, Mild Severity (AE table): 0.975 (0.840 to 1.133) 1
- Risk Ratio (95% CI): Nephrolithiasis (AE table): 1.050 (0.777 to 1.419) −1
- Risk Ratio (95% CI): Nephropathies (AE table): 0.679 (0.380 to 1.213) 2
- Risk Ratio (95% CI): Nephrotic Syndrome (AE table): [0 drug vs 1 PBO]
- Risk Ratio (95% CI): Orthopnea (AE table): 0.500 (0.151 to 1.660) 3
- Risk Ratio (95% CI): PMS/Dysmenorrhea (AE table): [No cases in study]
- Risk Ratio (95% CI): PTSD (AE table): 0.667 (0.111 to 3.989) 2
- Risk Ratio (95% CI): Pancytopenia (AE table): 0.556 (0.186 to 1.657) 3
- Risk Ratio (95% CI): Pneumonia (AE table): 0.950 (0.807 to 1.118) 1
- Risk Ratio (95% CI): Polycystic Ovarian Syndrome (AE table): [No cases in study]
- Risk Ratio (95% CI): Proteinuria (AE table): 0.609 (0.314 to 1.181) 2
- Risk Ratio (95% CI): Psoriasis (AE table): 1.750 (0.949 to 3.230) −3
- Risk Ratio (95% CI): Psoriatic Conditions (AE table): 1.875 (1.024 to 3.435) −3
- Risk Ratio (95% CI): Psychosis: Psychotic disorder NEC (AE table): 0.500 (0.045 to 5.513) 3
- Risk Ratio (95% CI): Pulmonary Edema (AE table): 0.556 (0.257 to 1.202) 3
- Risk Ratio (95% CI): Rental Transplant (AE table): [No cases in study]
- Risk Ratio (95% CI): Respiratory Failure (AE table): 0.909 (0.497 to 1.664) 1
- Risk Ratio (95% CI): Respiratory tract infection (AE table): 0.939 (0.629 to 1.401) 1
- Risk Ratio (95% CI): Rheumatoid Arthritis (AE table): [0 drug vs 3 PBO]
- Risk Ratio (95% CI): Rhinitis (AE table): 0.727 (0.383 to 1.383) 2
- Risk Ratio (95% CI): Schizophrenia NEC (AE table): 0.500 (0.045 to 5.513) 3
- Risk Ratio (95% CI): Sepsis (AE table): 0.786 (0.499 to 1.237) 2
- Risk Ratio (95% CI): Severe chronic obstructive pulmonary disease (AE table): 0.857 (0.458 to 1.607) 1
- Risk Ratio (95% CI): Severe dermatitis, allergic (AE table): 0.250 (0.028 to 2.236) 4
- Risk Ratio (95% CI): Severe gastroenteritis (AE table): 0.667 (0.273 to 1.630) 2
- Risk Ratio (95% CI): Severe sepsis (AE table): 0.759 (0.437 to 1.318) 2
- Risk Ratio (95% CI): Severe systemic inflammatory response syndrome (AE table): 0.167 (0.020 to 1.384) 5
- Risk Ratio (95% CI): Severe urinary tract infection (AE table): 0.650 (0.324 to 1.305) 2
- Risk Ratio (95% CI): Sickle Cell Disease (AE table): [No cases in study]
- Risk Ratio (95% CI): Systemic inflammatory response syndrome (AE table): 0.250 (0.053 to 1.177) 4
- Risk Ratio (95% CI): Tooth infection (AE table): 0.690 (0.391 to 1.217) 2
- Risk Ratio (95% CI): Ulcerative Colitis (AE table): [0 drug vs 1 PBO]
- Risk Ratio (95% CI): Vascular hypertensive disorder (AE table): 0.914 (0.796 to 1.050) 1
- Risk Ratio (95% CI): Vulvovaginal mycotic infection (AE table): 0.455 (0.158 to 1.307) 3
- Risk Ratio (95% CI): Wheezing (AE table): 0.639 (0.379 to 1.076) 2
- ARR (ADHD): 0.0%
- NNT (ADHD): −8362005
- Risk Ratio (95% CI) (ADHD): 1.000 (0.141 to 7.097) −1
- ARR (Acute Myeloid Leukaemia): 0.0%
- NNT (Acute Myeloid Leukaemia): −8362005
- Risk Ratio (95% CI) (Acute Myeloid Leukaemia): 1.000 (0.141 to 7.097) −1
- ARR [1]: 0.0%
- NNT [1]: −4088
- Risk Ratio (95% CI) [1]: 2.000 (0.181 to 22.053) −3
- ARR (Alzheimer's Disease): 0.0%
- NNT (Alzheimer's Disease): −3344802
- Risk Ratio (95% CI) (Alzheimer's Disease): 1.000 (0.290 to 3.452) −1
- ARR (Asthma): 0.1%
- NNT (Asthma): −1019
- Risk Ratio (95% CI) (Asthma): 1.076 (0.742 to 1.560) −1
